Measured values from ChEMBL document CHEMBL5500412, “Discovery of Highly Selective, Potent, Covalent, and Orally Bioavailable Factor XIIa Inhibitors for the Treatment of Thrombo-Inflammation” (J Med Chem, 2024).
The source made the active and inactive calls. No cut-off for these calls is given here.

Tests used:
[1] = biological target: T1, Coagulation factor XII (Homo sapiens, UniProt P00748); test: Inhibition of FXIIa (unknown origin) using H-D-Pro-Phe-Arg-pNA as substrate incubated for 20 mins followed by substrate addition by spectrophotometric analysis
T1 sequence (P00748 whole entry): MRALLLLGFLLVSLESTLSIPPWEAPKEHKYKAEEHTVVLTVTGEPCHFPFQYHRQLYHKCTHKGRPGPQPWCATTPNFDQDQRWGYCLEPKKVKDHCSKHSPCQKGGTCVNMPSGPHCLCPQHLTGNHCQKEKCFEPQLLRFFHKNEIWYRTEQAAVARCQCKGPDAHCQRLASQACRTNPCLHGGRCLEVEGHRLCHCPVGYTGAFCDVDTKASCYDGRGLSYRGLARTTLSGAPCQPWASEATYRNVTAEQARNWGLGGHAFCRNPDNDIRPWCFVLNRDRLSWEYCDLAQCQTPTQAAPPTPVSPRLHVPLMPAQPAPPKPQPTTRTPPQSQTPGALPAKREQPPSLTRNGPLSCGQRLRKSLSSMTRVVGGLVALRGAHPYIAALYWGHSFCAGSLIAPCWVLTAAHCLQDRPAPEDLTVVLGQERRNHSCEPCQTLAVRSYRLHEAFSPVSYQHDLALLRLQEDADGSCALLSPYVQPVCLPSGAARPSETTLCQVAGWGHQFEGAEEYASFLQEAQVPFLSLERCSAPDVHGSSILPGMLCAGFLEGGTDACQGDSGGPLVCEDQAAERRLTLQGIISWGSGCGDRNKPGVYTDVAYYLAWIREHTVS

[2] = biological target: Prothrombin (Homo sapiens, UniProt P00734); test: Inhibition of thrombin (unknown origin) using H-D-Phe-Pip-Arg-pNA-2HCl as substrate incubated for 20 mins followed by substrate addition by spectrophotometric analysis
[3] = biological target: Plasma kallikrein (Homo sapiens, UniProt P03952); test: Inhibition of PKal (unknown origin) using H-D-Pro-Phe-Arg-pNA-2HCl as substrate incubated for 20 mins followed by substrate addition by spectrophotometric analysis
Plasma kallikrein, sequence (P03952 20-390 limits assumed): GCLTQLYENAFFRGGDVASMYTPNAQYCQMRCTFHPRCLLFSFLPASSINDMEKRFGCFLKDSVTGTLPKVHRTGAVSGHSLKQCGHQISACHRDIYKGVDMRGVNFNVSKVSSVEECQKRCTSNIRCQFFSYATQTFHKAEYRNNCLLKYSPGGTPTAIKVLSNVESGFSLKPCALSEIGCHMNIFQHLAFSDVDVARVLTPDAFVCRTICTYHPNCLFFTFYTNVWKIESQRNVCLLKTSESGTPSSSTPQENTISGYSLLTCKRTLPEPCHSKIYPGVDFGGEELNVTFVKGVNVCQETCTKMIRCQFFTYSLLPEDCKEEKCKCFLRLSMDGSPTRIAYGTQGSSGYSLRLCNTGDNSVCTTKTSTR
Plasma kallikrein, sequence (P03952 391-638 limits assumed): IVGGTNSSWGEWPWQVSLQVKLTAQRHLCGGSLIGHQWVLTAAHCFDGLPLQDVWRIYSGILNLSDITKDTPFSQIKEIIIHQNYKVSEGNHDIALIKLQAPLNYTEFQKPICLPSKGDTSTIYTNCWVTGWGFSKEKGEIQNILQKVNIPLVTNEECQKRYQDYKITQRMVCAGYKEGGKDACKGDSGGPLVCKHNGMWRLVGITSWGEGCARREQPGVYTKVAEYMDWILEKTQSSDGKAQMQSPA

[4] = biological target: Coagulation factor XI (Homo sapiens, UniProt P03951); test: Inhibition of FXIa (unknown origin) using p-Glu-Pro-Arg-pNA.HCl as chromogenic substrate incubated for 20 mins followed by substrate addition by spectrophotometric analysis
Coagulation factor XI, sequence (P03951 19-387 limits assumed): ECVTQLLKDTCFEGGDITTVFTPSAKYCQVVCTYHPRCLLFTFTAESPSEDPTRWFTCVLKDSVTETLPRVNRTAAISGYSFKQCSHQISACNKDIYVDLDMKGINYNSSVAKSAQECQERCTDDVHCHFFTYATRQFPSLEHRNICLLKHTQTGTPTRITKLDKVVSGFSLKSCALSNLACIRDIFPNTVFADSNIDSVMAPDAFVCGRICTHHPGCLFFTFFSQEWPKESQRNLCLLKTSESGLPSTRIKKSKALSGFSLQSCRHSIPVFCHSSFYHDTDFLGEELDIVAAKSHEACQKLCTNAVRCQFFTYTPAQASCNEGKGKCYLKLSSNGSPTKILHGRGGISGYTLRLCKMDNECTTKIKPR
Coagulation factor XI, sequence (P03951 388-625 limits assumed): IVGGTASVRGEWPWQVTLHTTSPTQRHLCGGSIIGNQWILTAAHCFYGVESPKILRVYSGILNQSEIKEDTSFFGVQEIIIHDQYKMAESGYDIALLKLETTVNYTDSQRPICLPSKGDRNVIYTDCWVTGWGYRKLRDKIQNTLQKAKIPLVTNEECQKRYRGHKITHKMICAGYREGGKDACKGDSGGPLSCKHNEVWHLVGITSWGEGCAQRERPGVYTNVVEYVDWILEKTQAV

[5] = biological target: Trypsin (Homo sapiens, UniProt P07477+P07478+P35030); test: Inhibition of trypsin (unknown origin) using Bz-lle-Glu(gamma-OR)-Gly-Arg-pNA.HCl as chromogenic substrate incubated for 20 mins followed by substrate addition by spectrophotometric analysis; assay type: protein assay
[6] = biological target: Chymotrypsin (Homo sapiens, UniProt Q99895+P17538+P40313+Q6GPI1); test: Inhibition of Chymotrypsin (unknown origin) using N-Suc-Ala-Ala-Pro-Phe-pNA as chromogenic substrate incubated for 20 mins followed by substrate addition by spectrophotometric analysis; assay type: protein assay
[7] = biological target: Tissue-type plasminogen activator (Homo sapiens, UniProt P00750); test: Inhibition of tPA (unknown origin) using H-D-lle-Pro-Arg-pNA-2HCl as chromogenic substrate incubated for 20 mins followed by substrate addition by spectrophotometric analysis
Tissue-type plasminogen activator, sequence (P00750 whole entry): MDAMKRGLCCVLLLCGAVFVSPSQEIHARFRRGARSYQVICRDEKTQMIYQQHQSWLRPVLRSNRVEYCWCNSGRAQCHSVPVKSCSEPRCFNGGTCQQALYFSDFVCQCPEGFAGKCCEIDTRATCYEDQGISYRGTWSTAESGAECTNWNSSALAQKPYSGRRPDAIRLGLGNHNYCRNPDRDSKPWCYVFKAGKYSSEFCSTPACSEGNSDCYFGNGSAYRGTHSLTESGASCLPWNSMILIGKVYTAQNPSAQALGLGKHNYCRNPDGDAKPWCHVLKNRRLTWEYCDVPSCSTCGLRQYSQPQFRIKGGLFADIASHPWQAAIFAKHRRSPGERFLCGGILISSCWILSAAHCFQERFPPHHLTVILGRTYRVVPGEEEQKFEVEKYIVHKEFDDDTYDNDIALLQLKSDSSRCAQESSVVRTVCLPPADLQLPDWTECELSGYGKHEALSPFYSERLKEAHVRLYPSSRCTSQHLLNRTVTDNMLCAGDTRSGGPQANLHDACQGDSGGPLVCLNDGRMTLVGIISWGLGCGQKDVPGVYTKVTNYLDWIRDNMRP

[8] = Selectivity index, ratio of IC50 for thrombin (unknown origin) to IC50 for FXIIa (unknown origin)
[9] = Selectivity index, ratio of IC50 for PKal (unknown origin) to IC50 for FXIIa (unknown origin)
[10] = Selectivity index, ratio of IC50 for FXIa (unknown origin) to IC50 for FXIIa (unknown origin)
[11] = Selectivity index, ratio of IC50 for FXa (unknown origin) to IC50 for FXIIa (unknown origin)
[12] = Selectivity index, ratio of IC50 for trypsin (unknown origin) to IC50 for FXIIa (unknown origin)
[13] = Selectivity index, ratio of IC50 for chymotrypsin (unknown origin) to IC50 for FXIIa (unknown origin)
[14] = Selectivity index, ratio of IC50 for plasmin (unknown origin) to IC50 for FXIIa (unknown origin)
[15] = Selectivity index, ratio of IC50 for tPA (unknown origin) to IC50 for FXIIa (unknown origin)
[16] = biological target: T2, Coagulation factor XII (Homo sapiens) (UniProt P00748); test: Covalent inhibition of FXIIa (unknown origin) at 20 to 40 nM measured after 10 mins; conditions: dose 20-40 nM
T2 sequence (whole entry): T1 sequence (P00748 whole entry)

[17] = biological target: T1, Coagulation factor XII; test: Binding affinity to FXIIa (unknown origin) assessed as inhibition constant using H-D-Pro-Phe-Arg-pNA.2HCl as substrate by spectrophotometric analysis
[18] = biological target: T2, Coagulation factor XII (Homo sapiens); test: Binding affinity to FXIIa (unknown origin) assessed as inactivation rate using H-D-Pro-Phe-Arg-pNA.2HCl as substrate by spectrophotometric analysis
[19] = biological target: T2, Coagulation factor XII (Homo sapiens); test: Inhibition of FXIIa (unknown origin) using H-D-Pro-Phe-Arg-pNA as substrate preincubated for 20 mins followed by 100 fold dilution upto 120 mins then substrate addition for 60 mins by jump dilution assay; conditions: time <= 200.0 min
[20] = biological target: T2, Coagulation factor XII (Homo sapiens); test: Binding affinity to FXIIa (unknown origin) assessed as Kinact/Ki using H-D-Pro-Phe-Arg-pNA.2HCl as substrate by spectrophotometric analysis
[21] = system: RAW264.7; test: Antiinflammatory activity in mouse RAW264.7 cells assessed as inhibition of LPS-induced IL-1 beta expression at 10 uM preincubated for 12 hrs followed by LPS stimulation and measured after 12 hrs by real time quantitative RT-PCR assay; assay type: functional, cell-based; conditions: time 24.0 hrs
[22] = system: RAW264.7; test: Antiinflammatory activity in mouse RAW264.7 cells assessed as inhibition of LPS-induced IL-6 expression at 10 uM preincubated for 12 hrs followed by LPS stimulation and measured after 12 hrs by real time quantitative RT-PCR assay; assay type: functional, cell-based; conditions: time 24.0 hrs
[23] = system: Plasma; test: Anticoagulant activity in human plasma assessed as prolongation of activated partial thromboplastin time at 300 uM incubated for 2 mins by aPTT reagent based assay relative to control; assay type: functional
[24] = system: Plasma; test: Anticoagulant activity in human plasma assessed as prolongation of […] time at 300 uM incubated for 2 mins by PT reagent based assay relative to control; assay type: functional
[25] = system: Plasma; test: Anticoagulant activity in human plasma assessed as prolongation of activated partial thromboplastin time incubated for 2 mins by aPTT reagent based assay; assay type: functional
[26] = system: Plasma; test: Anticoagulant activity in non-activated human plasma at 10 to 25 uM measured after 30 mins; assay type: functional, cell-free; conditions: dose 10-25 µM

IC50 [1]: 35 nM | IC50 [2]: 360 nM | IC50 [3]: > 25000 nM | IC50 [4]: > 25000 nM | IC50 [5]: > 5000 nM | IC50 [6]: > 5000 nM | IC50 [7]: > 5000 nM | Ratio IC50 [8]: 10 | Ratio IC50 [9]: > 710 | Ratio IC50 [10]: > 710 | Ratio IC50 [11]: > 140 | Ratio IC50 [12]: > 140 | Ratio IC50 [13]: > 140 | Ratio IC50 [14]: > 140 | Ratio IC50 [15]: > 140 | inhibition [16]: Active | Ki [17]: 43.5 nM | Kinact [18]: 0.026 min⁻¹ | inhibition [19]: inactive | K [20]: 5.96 10^5/M/min
Structure (SMILES): Nc1nc(-c2ccccn2)nn1C(=O)c1cccc2ccccc12
Activity [21]: Active | Activity [22]: Active | Activity [23]: 303% | Activity [24]: 17% | EC1.5 [25]: 145 µM | Activity [26]: inactive
